Test results as given in article PMC5533763, “Two dopamine D2-like receptor genes from the silkworm (Bombyx mori) and their evolutionary history in metazoan” (Scientific Reports, 2017).

Target: T1, BmDop2R2 (Bombyx mori, UniProt A0A2D1QSC3)
T1 construct: full-length ORF (536 residues printed; 1596 bp ORF, which would give about 531; 7 TM) in pcDNA3.1(+), HindIII/NotI, transfected HEK-293 cells; no tag mentioned; chromosome 18, nscaf 2901; tandem paralogue of BmDop2R1 (440 residues, lacks TM I-II)
T1 sequence (A0A2D1QSC3 1-536): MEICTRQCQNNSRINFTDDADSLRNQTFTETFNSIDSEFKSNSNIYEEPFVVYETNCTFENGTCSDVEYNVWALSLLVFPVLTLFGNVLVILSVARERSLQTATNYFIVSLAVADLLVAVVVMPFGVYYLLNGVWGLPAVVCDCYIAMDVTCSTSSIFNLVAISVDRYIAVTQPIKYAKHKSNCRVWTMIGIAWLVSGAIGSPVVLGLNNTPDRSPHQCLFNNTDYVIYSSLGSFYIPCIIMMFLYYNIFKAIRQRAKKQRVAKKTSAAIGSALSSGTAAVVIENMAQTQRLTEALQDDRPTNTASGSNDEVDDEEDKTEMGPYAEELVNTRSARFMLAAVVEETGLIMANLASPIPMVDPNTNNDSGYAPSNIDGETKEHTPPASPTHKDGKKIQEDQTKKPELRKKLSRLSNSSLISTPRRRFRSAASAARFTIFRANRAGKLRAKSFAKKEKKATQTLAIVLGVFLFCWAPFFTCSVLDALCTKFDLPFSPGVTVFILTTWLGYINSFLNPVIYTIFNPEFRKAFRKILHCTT
Test: cAMP ELISA in transfected HEK-293 cells (inhibition of forskolin-stimulated cAMP)
Assay type: cell-based

NCCc1ccc(O)c(O)c1 [dopamine]
EC50: 657 nM
